Drawing on patent US10954214B2 (Janssen Pharmaceutica NV, priority 2016, dated 2021), this text covers IC50 for six molecules.

SMILES strings stand for the structures.

Assay [1] concerns the target full-length MALT1 protein (Strep-MALT1(1-824)-His) (Homo sapiens (Human), UniProt Q9UDY8). Nature of the assay: MALT1 Biochemical Protease Assay (Ac-LRSR-AMC substrate). The note with it: 10 nM FL MALT1, 200 μM Ac-LRSR-AMC, 4 h at RT; read-out: MALT1_Biochemical activity (Ac-LRSR-amc) IC50. In short, it runs like this: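 Fluorescence from AMC release off the quenched LRSR substrate was read after a 4 h reaction at RT. Values were normalised to no-enzyme and uninhibited controls and fitted for IC50 and Hill coefficient.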

In assay [2] the test system is TMD8 cells. In words: 4-day proliferation assay, TMD8. The format is cell-based. The note with it: Homo sapiens, 96 h, 4 days incubation, CellTiterGLO, read-out: Anti-proliferation: TMD-8 IC50. An outline of the steps: (§1)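 Each line was plated at 10,000 cells per well for linear growth, with no beta-mercaptoethanol during the assay. OCI-Ly3 cells were below passage 10.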
(ATP-based viability assays read luminescence as a measure of living cells.)

Assay [3] concerns IL6 secretion by TMD8 ABC-DLBCL cells. In words: Human IL6 Mesoscale assay (TMD-8). The format is cell-based. The note with it: Homo sapiens, TMD8; TMD-8 cells, 24 h. In short, it runs like this:
(§2)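 TMD8 or OCI-LY3 cells (100,000/well) were exposed to compounds in 9 twofold dilutions from 15 μM to 58.6 nM (0.3% DMSO) for 24 h at 37 °C. Supernatant IL6 and IL10 were quantified by MSD electrochemiluminescence immunoassay. DMSO defined maximum signal and BTK inhibitor RN486 (30 nM–131 pM) defined maximum inhibition.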

For assay [4], the system named is Jurkat cells. Nature of the assay: PMA Induced IL2 Production In Jurkat Cells. The format is cell-based. To be noted: Homo sapiens, PMA/Ionomycin, 20 h, read-out: IL-2 prod h Jurkat PMA IC50.
The subject of assay [5] is OCI-Ly3 cells. In words: 4-day proliferation assay, OCI-Ly3. The format is cell-based, human. The note with it: Homo sapiens, 96 h, 4 days incubation, CellTiterGLO, read-out: Anti-proliferation: OCI-LY-3 IC50. An outline of the steps: as §1
Assay [6] deals with IL10 secretion by TMD8 ABC-DLBCL cells. In words: Human IL10 Mesoscale assay (TMD-8). The format is cell-based. To be noted: Homo sapiens, TMD8; TMD-8 cells, 24 h. In short, it runs like this:
as §2

Chain of full-length MALT1 protein (Strep-MALT1(1-824)-His) (Q9UDY8 whole entry): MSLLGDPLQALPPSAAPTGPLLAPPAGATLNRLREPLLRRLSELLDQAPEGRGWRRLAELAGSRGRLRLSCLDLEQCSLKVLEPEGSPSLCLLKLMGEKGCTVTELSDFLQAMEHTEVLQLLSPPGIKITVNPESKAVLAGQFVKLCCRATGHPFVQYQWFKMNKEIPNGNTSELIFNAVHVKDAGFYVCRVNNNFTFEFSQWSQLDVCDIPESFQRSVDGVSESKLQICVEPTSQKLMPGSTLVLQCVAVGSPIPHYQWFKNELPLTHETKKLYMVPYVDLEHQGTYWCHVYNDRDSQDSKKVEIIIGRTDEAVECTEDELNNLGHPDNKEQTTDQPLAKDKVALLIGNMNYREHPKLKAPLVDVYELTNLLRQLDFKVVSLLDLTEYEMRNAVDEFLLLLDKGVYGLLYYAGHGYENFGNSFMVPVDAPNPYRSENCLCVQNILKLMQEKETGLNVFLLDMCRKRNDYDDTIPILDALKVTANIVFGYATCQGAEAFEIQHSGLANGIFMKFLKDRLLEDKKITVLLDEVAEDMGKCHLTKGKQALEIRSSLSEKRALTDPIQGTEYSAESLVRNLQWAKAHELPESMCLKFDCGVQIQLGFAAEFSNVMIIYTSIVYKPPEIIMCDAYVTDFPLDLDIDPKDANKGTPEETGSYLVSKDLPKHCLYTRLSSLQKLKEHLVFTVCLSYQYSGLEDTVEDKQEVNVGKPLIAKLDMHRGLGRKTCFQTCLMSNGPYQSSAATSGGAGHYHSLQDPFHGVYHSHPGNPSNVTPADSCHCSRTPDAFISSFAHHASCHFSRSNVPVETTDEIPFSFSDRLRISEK

In the case of `Cc1ncnn1-c1ccc(NC(=O)c2cnn(-c3cncc4ccccc34)c2C(F)(F)F)cc1Cl` [Cpd 51, N-(3-Chloro-4-(5-methyl-1H-1,2,4-triazol-1-yl)phenyl)-1-(isoquinolin-4-yl)-5-(trifluoromethyl)-1H-pyrazole-4-carboxamide], the IC50 is 45 nM in assay [1]; roughly 6.61 µM in assay [2]; 62 nM in assay [3]; 96 nM in assay [4]; 200 nM in assay [5]; 126 nM in assay [6].
Turning to `Cn1ccc(-c2ncc(NC(=O)c3cnn(-c4cncc5ccccc45)c3C(F)(F)F)cc2Cl)n1` [Cpd 52, N-(5-chloro-6-(1-methyl-1H-pyrazol-3-yl)pyridin-3-yl)-1-(isoquinolin-4-yl)-5-(trifluoromethyl)-1H-pyrazole-4-carboxamide], the IC50 in assay [1] was determined as 35 nM; in assay [2], 5.01 µM; in assay [3], 79 nM; in assay [4], 130 nM; in assay [5], 210 nM; in assay [6], 91 nM.
Take `Cc1ncn(-c2ncc(NC(=O)c3cnn(-c4cncc5ccccc45)c3C(F)(F)F)cc2Cl)n1` [Cpd 53, N-(5-Chloro-6-(3-methyl-1H-1,2,4-triazol-1-yl)pyridin-3-yl)-1-(isoquinolin-4-yl)-5-(trifluoromethyl)-1H-pyrazole-4-carboxamide]: the IC50 in assay [1] was 100 nM; in assay [2], roughly 13.5 µM; in assay [3], 200 nM; in assay [4], 380 nM; in assay [5] it was 1070 nM; in assay [6], 240 nM.
Take `Cc1ncnn1-c1ncc(NC(=O)c2cnn(-c3cncc4ccccc34)c2C(F)(F)F)cc1Cl` [Cpd 54, N-(5-Chloro-6-(5-methyl-1H-1,2,4-triazol-1-yl)pyridin-3-yl)-1-(isoquinolin-4-yl)-5-(trifluoromethyl)-1H-pyrazole-4-carboxamide]: the IC50 in assay [1] stood at 275 nM; in assay [2], 8.71 µM; in assay [3], 110 nM; in assay [4] it was 370 nM; in assay [5] it was 460 nM; in assay [6], 269 nM.
Turning to `Cc1ncn(-c2ccc(NC(=O)c3cnn(-c4cncc5ccccc45)c3C(F)(F)F)cc2Cl)n1` [Cpd 55, N-(3-chloro-4-(3-methyl-1H-1,2,4-triazol-1-yl)phenyl)-1-(isoquinolin-4-yl)-5-(trifluoromethyl)-1H-pyrazole-4-carboxamide], the IC50 in assay [1] is 182 nM; in assay [2], 5.25 µM; in assay [3], roughly 93 nM; in assay [4], 130 nM; in assay [5] it was 540 nM; in assay [6], 195 nM.
For `O=C(Nc1ccc(-n2ccnn2)c(Cl)c1)c1cnn(-c2cncc3ccccc23)c1C(F)(F)F` [compound 43, N-(3-chloro-4-(1H-1,2,3-triazol-1-yl)phenyl)-1-(isoquinolin-4-yl)-5-(trifluoromethyl)-1H-pyrazole-4-carboxamide], the IC50 was 60 nM in assay [1]; 4.68 µM in assay [2]; 102 nM in assay [3]; 54 nM in assay [4]; roughly 260 nM in assay [5]; 81 nM in assay [6].
